Values joined by “and” are separate entries in the source; they are usually repeats but may differ in a detail not shown here. Equal entries are not always repeated. Where two headings read alike, the source gives them in different places. Where no end group is shown, it is not given here.
What was measured:
[1] = test system: A. baumannii strains #1791 and ATCC17978; test: microbe, parasite or virus in culture; details: Acinetobacter baumannii, ATCC17978, 24 h, 37° C.
in vitro = type: cell-based; details: B cell line
B cell line = test: in vitro; type: cell-based
red blood cells (RBC) = test: Hemolysis, release of hemoglobin (OD405); details: 80-0.3125 μM; 1 hour at 37° C.; Triton X-100 positive control
Human B-cells = test: B cell survival, CellTiter 96 Non-Radioactive Cell Proliferation Assay; details: highest concentration tested (80 μM); 1 hr at 37° C.
[2] = test system: A. baumannii strains #1791, S5 and ATCC17978; test: In vitro bactericidal activities of peptides (Example 10); type: cell-based
[3] = test system: A. baumannii strains #1791 and ATCC17978; details: Mueller-Hinton broth (pH 7.9), 37° C., 24 hour
[4] = test system: A. baumannii strain 1791 biofilm; test: Mouse catheter model; type: in vivo, BALB/C mice; details: 250 μl of F307 (1 mg) injected into catheter under the dermis, repeated after 4 hours
Description: Mouse Catheter Model: Several 3 inch section of catheter tubing were seeded (1:1000) with A. baumannii strain 1791. A. baumannii biofilms were formed as described above. The back of twenty BALB/C mice were shaved, their backs were sterilized, and then an incision was made to place a 1 inch section of the catheter with a biofilm already formed under the dermis of the back. The incisions were then stapled shut. After 24 hours, 250 μl of F307 (1 mg) (n=10) or 250 μl control vehicle (n=10) was injected directly into the catheter that was under the dermis of the mouse. The treatment was repeated after 4 hours. After 3 hours the catheters were removed from the mice, and assayed as described in Experiment 4.

A. baumannii = test: Survival of mice after lethal injection of A. baumannii; type: in vivo, C57BL/6 mice; details: 1 mg of F307 IP two hours after 10^8 CFU IP; 14 days after infection
Description: Twenty-two C57BL/6 mice were given 10^8 CFU of A. baumannii strain intraperitoneally (IP). Two hours later, two mice were euthanized and organs examine as described below, ten mice injected IP with 1 mg of F307 and ten mice were injected IP with control vehicle.

[5] = test system: A. baumannii clinical isolates; test: Crude lysate clearing zones on A. baumannii soft agar plates; details: thirteen A. baumannii clinical isolates
[6] = test system: A. baumannii 1791 biofilm; test: In vitro treatment of catheter adherent A. baumannii 1791 biofilm with F307
[7] = pH 7.9, strain #1791, Mueller-Hinton broth (pH 7.9)
[8] = pH 7.9, strain ATCC17978, Mueller-Hinton broth (pH 7.9)

For `CC(C)(O/N=C(\C(=O)N[C@@H]1C(=O)N2C(C(=O)[O-])=C(C[n+]3ccccc3)CS[C@H]12)c1csc(N)n1)C(=O)O` [Ceftazidime], the MIC [1, 7] was 250 µg/mL and 457 µM and the MIC [1, 8] was 12 µg/mL and 21.9 µM.

In the case of `C[C@H]1COc2c(N3CCN(C)CC3)c(F)cc3c(=O)c(C(=O)O)cn1c23` [Levofloxacin], the MIC [1, 7] is reported as 6 µg/mL and 16.6 µM and the MIC [1, 8] is reported as ≤ 0.1 µg/mL and 0.3 µM.

With NAKDYKGAAAEFPKWNKAGGRVLAGLVKRRK [P307] the viability at 5 min, 2 μg (in vitro) was 95.2%, the viability at 5 min, 20 μg (in vitro) was 97.2% and the viability at 5 min, 200 μg (in vitro) was 94.6%. For the same molecule, the viability at 0.5 h, 2 μg (in vitro) was 76.9%, the viability at 0.5 h, 20 μg (in vitro) was 88.6% and the viability at 1 h, 2 μg (in vitro) was 89.3%. For the same molecule, the viability at 1 h, 20 μg (in vitro) was 89.7%, the viability at 1 h, 200 μg (in vitro) was 71.4% and the viability at 2 h, 2 μg (in vitro) was 92.5%. The viability at 2 h, 20 μg (in vitro) was 90.3%, the viability at 2 h, 200 μg (in vitro) was 71.9% and the viability at 3 h, 2 μg (in vitro) was 93.8%. It also gave a viability at 3 h, 20 μg (in vitro) of 91%, a viability at 3 h, 200 μg (in vitro) of 58.6% and a viability at 24 h, 2 μg (in vitro) of 96.3%. For the same molecule, the viability at 24 h, 20 μg (in vitro) was 94.2%, the viability at 24 h, 200 μg (in vitro) was 76.3% and the “effect on cell number of a B cell line” value (B cell line) was “only a slight effect on cell number”.

In the case of “NAKDYKGAAAEFPKWNKAGGRVLAGLVKRRKSQSRESQC [P307SQ-8C]”, the “integrity of RBCs (hemolysis)” value (red blood cells (RBC)) is reported as “not affected” and the “viability of B cells” value (Human B-cells) is reported as “remains the same as the buffer control”.

For “P307AE-8: SEQ ID NO: 49: NAKDYKGAAAEFPKWNKAGGRVLAGLVKRRKAEMELFLK (P307AE-8)”, the “decrease in viable bacteria” value ([2]; 50 μg/mL, 2 hours, room temperature) was about 3.8 log-unit.

For “P307CS-8: SEQ ID NO: 51: NAKDYKGAAAEFPKWNKAGGRVLAGLVKRRKCSQRQSES (P307CS-8)”, the “activity of P307CS-8 compared with P307SQ-8C” value ([2]; scrambled last eight amino acids) was “comparable”.

For Polymyxin B [reference compound], the MIC ([3]; strain #1791) was 0.25 μg/mL and 0.19 μM and the MIC ([3]; strain ATCC17978) was 0.25 μg/mL and 0.19 μM.

With SQSRESQC (Ex) [reference compound] the “bactericidal activity of SQSRESQC alone or combined with P307” value ([2]; strains #1791 and S5, same molar concentration as 50 μg/mL P307) was “no activity”.

B1: F307: phage lysin polypeptide, SEQ ID NO: 1, 16 kDa (protein, listed as Acinetobacter baumannii)
chain: VKTSNPGVDLIKGFEGLRLKAYDDGVGVWTIGFGTIKYPNGVRVKKGDTCTESQAEEYLRNDLVVFESAINRLVKVPLNQNQFDALASFTYNLGEGNLSISTLLKKLNAKDYKGAAAEFPKWNKAGGRVLAGLVKRRKAEMELFLK
For B1, the “reduction of bacterial counts compared with control” value [4] was “approximately 2 logs”, the survival (A. baumannii) was 50% and the “percent of Acinetobacter strains lysed” value [5] was “about 90%”. For the same molecule, the “drop in the number of colony forming units” value ([6]; 3-day biofilm on catheter, after 30 minutes of treatment) was about 4 log, the CFU ([6]; 15 minutes F307 treatment) was 9.0 × 10^4 CFU and the CFU ([6]; 30 minutes F307 treatment) was 6.0 × 10^3 CFU.
